Test results taken from patent US20210267944A1 (BioXcel Therapeutics, Inc., priority 2018, published 2021).
Where “and” joins values, the source holds several entries; their conditions need not be identical. Identical values can stand only once. Entries after “also recorded” stand apart in the source; their conditions may differ. Counter-ions that a name gives are not always drawn. Like-named read-outs stand apart in the source and are kept apart here.

Assays:
[1] = test system: agitated subjects with senile dementia of Alzheimer's type; settings: for RASS score: per subject
Protocol: Clinical evaluation was performed as follows. Patients were screened up to 4 weeks prior to randomization. After obtaining the written informed consent from subjects, subjects were allowed to participate in the study related screening activities. Screening activities included clinical laboratory tests, physical examination, ECG, etc. After completion of all screening related activities, the eligible subjects [male and female subjects 55 to 75 years of age; known cases of mild probable Alzheimer's disease (SDAT) in accordance with NINCDS/ADRDA criteria for diagnosis of Alzheimer's disease with a Mini-Mental State Score of between 20 to 24; RASS score of +1 or +2 on the Day −1 and prior to drug administration on Day 1] were randomized in the study (treatment allocation 5:2). Subjects were housed in the clinic from Day −1 (preferably in the afternoon or evening) to end of study. Additional housing was allowed performed based on the investigator's discretion.
Study drug IV infusion was to be stopped at any time if any of the following occurred: • There was more than 20 mm Hg decrease in systolic or diastolic blood pressure. • There was an isolated drop in Systolic BP<100 mm of Hg. • There was an isolated drop Diastolic BP<60 mm of Hg. • There was a decrease in heart rate of 20 beats per minute or a drop below 50 beats per minute. • Attainment of a RASS of −1 at the end of each 30 minutes infusion period.
All raters were trained in the use of the RASS scale.
Once the participant was drowsy but able to respond to verbal stimulation, the infusion was stopped, and time was recorded.

[2] = test system: agitated subjects with senile dementia of Alzheimer's type; settings: human, in vivo
Protocol: Clinical assessments of cognitive functioning, alertness/awareness, balance and reaction time were performed prior to the IV infusion, at the end of infusion until the participant had reached their baseline parameters or, in the judgment of the principal investigator, the participant had reached a stable and acceptable level of arousal.
Time period at which clinical assessment of cognitive functioning, alertness/awareness, balance, and reaction time persist after drowsiness has resolved was assessed. Cognitive functioning, alertness/awareness, balance, and reaction time reached to their baseline level within around 45 minutes after drowsiness was resolved/recovered (see Table 7).

[3] = human, in vivo
Description: In addition, we assessed the following Secondary Objectives: • a. Determine how rapidly the drug can be administered up to the total dose needed to achieve RASS −1. • b. Determine how long the calming effect persists after discontinuation of study drug administration. • c. Determine whether any adverse effects on blood pressure, heart rate, or respiratory drive occurs before or coincident with the achievement of Primary Objective. Stopping rules for blood pressure and heart rate, indicating a clinically significant event, are: • 1. drop in systolic BP<90 mm of Hg. • 2. drop in diastolic BP<60 mm of Hg • 3. drop below 50 beats per minute
The participants were continuously monitored during the study by the site personnel, including monitoring blood pressure and heart rate. Intermittent electrocardiograms were taken from the start of the infusion through resolution of the sedation and/or any adverse effects on blood pressure or heart rate.
Return to baseline parameters is defined as BP falling within 15 mm of Hg of baseline reading prior to drug administration or HR falling within 10 beats per minute of baseline reading prior to drug administration.

[4] = schizophrenia study, one subject
Protocol: Adverse events (AEs), including serious adverse events (SAEs), were assessed, recorded, and reported in accordance with FDA guidance. Should any SAE occur, the study would be stopped until a cause for the SAE was determined.

[5] = test system: healthy, elderly (55-75 years of age) volunteers
Protocol: Subjects in the initial cohorts were initially healthy, elderly (55-75 years of age) volunteers. Subjects in later cohort were elderly volunteers healthy except for having mild probable SDAT. Both sexes were included in all cohorts.
Each infusion rate was administered for 30 minutes. After 30 minutes, the dose was increased by an additional 0.1 mcg/kg/hr until the subject achieved a predetermined level of sedation as assessed by the Richmond Agitation-Sedation Scale (RASS) or a pre-specified reduction in BP and/or HR. The dosing rate was adjusted for subsequent cohorts based on the results of preceding cohorts. Continuous assessment was made of the level of arousal, BP and HR. […] Statistics were descriptive and correlational in terms of pharmacodynamic and pharmacokinetic relationships.
The participants in cohort 1 were designated by subject codes 11XX and 91XX, and those in cohort 2 were designated by subject codes 12XX. Time needed to resolve refers to the time from the cessation of the infusion to the resolution of the pharmacodynamic effect of the drug on either arousal or blood pressure and heart rate.

[6] = SDAT
[7] = SDAT study
[8] = test system: subjects suffering from schizophrenia; settings: for RASS values after infusion start: schizophrenia patients, per patient
[9] = human, in vivo; remark: listed apart in the source
clinical = settings: human, plasma, iv, Plasma concentrations, individual opioid withdrawal patients, IV infusion
[10] = Post-ECG, After stopping of Dose

SMILES: Cc1cccc([C@H](C)c2cnc[nH]2)c1C [dexmedetomidine hydrochloride]
- Efficacy (Primary/secondary end points): subjects reaching RASS-1 ([1]; Alzheimer's Study): 7/10 RASS-1
- Range of efficacious dose of IV dexmedetomidine hydrochloride ([1]; Alzheimer's Study, continuous infusion): 0.2 to 0.5 µg/kg/h
- time after infusion discontinuation at which subjects became alert and remained calm ([1]; SDAT): around 30 minutes
- IV infusion rate, range ([1]; SDAT patients): 0.2 to 0.5 µg/kg/h
- RASS score ([1]; SDAT patients, 00:00 Hr, listed as Treatment): 2 (5×) and 1 (5×)
- RASS score ([1]; SDAT patients, 02:30 Hr): 1
- Total dose, range ([1]; SDAT, extent of exposure): 0.15 to 0.75 µg/kg
- Time period for which a calming effect persisted after discontinuation of study drug ([1]; SDAT, n=7): 5 min
- Time period for which a calming effect persisted after discontinuation of study drug, Max ([1]; SDAT, n=7): 45 min
- Time period for which a calming effect persisted after discontinuation of study drug, Mean ± SD ([1]; SDAT, n=7): 28.6 ± 15.74 min
- Time period for which a calming effect persisted after discontinuation of study drug, Median ([1]; SDAT, n=7): 30 min
- optimal dose at which a RASS score of −1 was achieved, Max ([1]; SDAT, n=7): 0.5 µg/kg/h
- optimal dose at which a RASS score of −1 was achieved, Mean ± Sd (mean infusion rate) ([1]; SDAT, n=7): 0.34 µg/kg/h
- optimal dose at which a RASS score of −1 was achieved, Median ([1]; SDAT, n=7): 0.30 µg/kg/h
- optimal dose at which a RASS score of −1 was achieved, Min ([1]; SDAT, n=7): 0.2 µg/kg/h
- optimal dose at which a RASS score of −1 was achieved, Mode ([1]; SDAT, n=7): 0.30 µg/kg/h
- optimal dose at which a RASS score of −1 was achieved, Mean ± Sd (mean infusion rate) ([1]; SDAT, n=7, listed as Test): 0.34 ± 0.098 µg/kg/h
- optimal dose at which a RASS score of −1 was achieved, Mean ± Sd (mean infusion rate) ([1]; SDAT, n=7, listed as dexmedetomidine): 0.34 µg/kg/h
- subjects who achieved a RASS score of −1 ([1]; SDAT, out of 10 subjects): 7
- Time for cognitive functioning, alertness/awareness, balance, reaction time to reach baseline after drowsiness [2]: 10 min
- Time for cognitive functioning, alertness/awareness, balance, reaction time to reach baseline after drowsiness, Max [2]: 90 min
- Time for cognitive functioning, alertness/awareness, balance, reaction time to reach baseline after drowsiness, Mean ± SD [2]: 42.9 ± 27.36 min
- Time for cognitive functioning, alertness/awareness, balance, reaction time to reach baseline after drowsiness, Median [2]: 45 min
- time for cognitive functioning, alertness/awareness, balance, reaction time to reach baseline level after drowsiness resolved [2]: ≤ 45 min
- Hemodynamic effects [3]: All
- adverse effect on blood pressure (systolic and diastolic) and heart rate [3]: no adverse effect
- infusion time at which stopping criteria of <60 mm Hg was met [3]: 135 min
- AE Term [4]: Headache
- AE Outcome ([4]; headache): Recovered
- AE Relationship ([4]; headache): Possibly Related
- AE Severity ([4]; headache): Moderate
- time to mild sedation after starting the dose which produced the desired effect ([5]; Example 1A): ≤ 30 min
- subjects in whom mild sedation (RASS score of −1) was evident ([5]; Example 1A, IV infusion 0.1-0.6 mcg/kg/hr): 11/12
- Efficacy (Primary/secondary end points): subjects reaching RASS-1 ([5]; Healthy Volunteers Cohort 1): 6/6 RASS-1
- Range of efficacious dose of IV dexmedetomidine hydrochloride ([5]; Healthy Volunteers Cohort 1, continuous infusion): 0.3 to 0.5 µg/kg/h
- Efficacy (Primary/secondary end points): subjects reaching RASS-1 ([5]; Healthy Volunteers Cohort 2): 5/6 RASS-1
- Range of efficacious dose of IV dexmedetomidine hydrochloride ([5]; Healthy Volunteers Cohort 2, continuous infusion): 0.3 to 0.4 µg/kg/h
- Endpoint ([5]; healthy elderly volunteers, per subject, endpoint/stopping criterion reached): RASS −2; also recorded: RASS −1
- IV infusion rate at which desired effect/stopping criteria achieved ([5]; healthy elderly volunteers, per subject, rate raised every 30 min): 0.3 mcg/kg/hr (4×) and 0.4 mcg/kg/hr (7×) and 0.5 mcg/kg/hr
- effects on blood pressure and/or heart rate at exposure achieving mild sedation ([5]; in vivo): did not produce clinically meaningful effects on blood pressure and/or heart rate
- tolerability ([5]; in vivo): well-tolerated
- dose required by males compared to females ([5]; p<0.02, Sign test): twice
- optimal starting dose ([5]; results of cohorts 1 and 2): 0.3 µg/kg/h
- QTc interval, Max [6, 10]: 592
- QTc interval, Mean ± SD [6, 10]: 462.9 ± 73.04
- QTc interval, Median [6, 10]: 441.0
- QTc interval, Min [6, 10]: 370
- QTc interval, Max ([6]; Pre-ECG, Before Dosing): 524
- QTc interval, Mean ± SD ([6]; Pre-ECG, Before Dosing): 447.2 ± 35.51
- QTc interval, Median ([6]; Pre-ECG, Before Dosing): 444.3
- QTc interval, Min ([6]; Pre-ECG, Before Dosing): 398
- adverse events [7]: No adverse event was reported
- Efficacy (Primary/secondary end points): subjects reaching RASS-1 ([8]; Schizophrenia Study): 9/10 RASS-1
- Range of efficacious dose of IV dexmedetomidine hydrochloride ([8]; Schizophrenia Study, continuous infusion): 0.2 to 0.4 µg/kg/h
- patients in the treatment arm who achieved a RASS score of at least −1 ([8]; schizophrenia): 9 out of 10
- RASS values after infusion start ([8]; infusion 15 minutes): −2 and −1
- RASS values after infusion start ([8]; infusion 30 minutes): 0
- RASS values after infusion start ([8]; infusion 75 minutes): −1
- RASS values after infusion start ([8]; infusion 90 minutes): 0
- RASS values after infusion start ([8]; infusion […]): 0
- Mean infusion rate ([8]; schizophrenic patients): 0.36 µg/kg/h
- Time to reach Cmax, range [9]: 15 to 105 min
- concentration at […] (clinical; Day 1 (printed Day −1), 01:15 Hr): 0.0753 ng/mL
- concentration at […] (clinical; Day 1 (printed Day −1), 01:30 Hr): 0.112 ng/mL
- concentration at 0 h (clinical; Day 2 (printed Day −2), 00:00 Hr): 0.00821 ng/mL
- concentration at […] (clinical; Day 2 (printed Day −2), 01:15 Hr): 0.14 ng/mL
- concentration at […] (clinical; Day 2 (printed Day −2), 01:30 Hr): 0.177 ng/mL
- concentration at […] (clinical; Day 2 (printed Day −2), 01:45 Hr): 0.288 ng/mL
- concentration at 2 h (clinical; Day 2 (printed Day −2), 02:00 Hr): 0.404 ng/mL
